According to the PolyMetriX glass transition set:
± gives the standard deviation of the reports.

| glass transition temperature | SMILES |
| --- | --- |
| 250.00 °C | *c1cc(N2C(=O)c3ccc(-c4ccc5c(c4)C(=O)N(*)C5=O)cc3C2=O)ccc1OCC(F)(F)C(F)(F)C(F)(F)C(F)(F)C(F)(F)C(F)(F)C(F)(F)F (repeat unit) |
| 227.00 °C | *Oc1cccc(Oc2ccc(Oc3ccc4c(c3)C(=O)N(c3cccc(N5C(=O)c6ccc(*)cc6C5=O)c3)C4=O)cc2)c1 (repeat unit) |
| 250.00 °C | *Sc1cccc2c1C(=O)N(c1ccc(Oc3ccc(Oc4ccc(N5C(=O)c6cccc(*)c6C5=O)cc4)cc3)cc1)C2=O (repeat unit) |
| 226.00 °C | *c1ccc2c(c1)C(=O)N(c1ccc(OCC(F)(F)C(F)(F)C(F)(F)C(F)(F)C(F)(F)C(F)(F)C(F)(F)F)c(N3C(=O)c4ccc(C(*)(C(F)(F)F)C(F)(F)F)cc4C3=O)c1)C2=O (repeat unit) |
| 235.00 °C | *Oc1cccc(C(C)(C)c2ccc(Oc3cccc4c3C(=O)N(c3ccc(Oc5ccc(N6C(=O)c7cccc(*)c7C6=O)cc5)cc3)C4=O)cc2)c1 (repeat unit) |
| 283.00 °C | *c1ccc(Oc2ccc(C(C)(C)c3ccc(Oc4ccc(-n5c(=O)c6cc7c(=O)n(*)c(=O)c7cc6c5=O)cc4)cc3)cc2)cc1 (repeat unit) |
| 173.00 °C | *C1=C(Cl)C(=O)N(c2ccc(Cc3ccc(N4C(=O)C(Cl)=C(Oc5ccc(C(C)(C)c6ccc(*)cc6)cc5)C4=O)cc3)cc2)C1=O (repeat unit) |
| 292.00 °C | *c1ccc(Oc2ccc(Oc3ccc(-n4c(=O)c5ccc6c(=O)n(*)c(=O)c6c5c4=O)cc3)cc2)cc1 (repeat unit) |

| SMILES | glass transition temperature |
| --- | --- |
| *c1cccc(Oc2ccc(P(=O)(c3ccccc3)c3ccc(Oc4ccc(N5C(=O)c6ccc(-c7ccc8c(c7)C(=O)N(*)C8=O)cc6C5=O)cc4)cc3)cc2)c1 (repeat unit) | 241.00 °C |

Remark: another data set of the same source

| glass transition temperature | SMILES |
| --- | --- |
| -45.00 °C | *CC#CCOC(=O)NCCCCCCNC(=O)O* (repeat unit) |
| 214.00 °C | *Oc1ccc(C(=O)c2ccc(NC(=O)c3cccc(C(=O)Nc4ccc(C(=O)c5ccc(*)cc5)cc4)c3)cc2)cc1 (repeat unit) |
| 91.00 °C | *OC(=O)C(NC(=O)CCCCCCCCC(=O)NC(C(=O)OC1COC2C(*)COC12)C(C)CC)C(C)CC (repeat unit) |
| 132.00 °C | *CC(*)(C)C(=O)OCCCCn1c2ccccc2c2cc(/N=N/c3ccc([N+](=O)[O-])cc3[N+](=O)[O-])ccc21 (repeat unit) |
| 217.00 °C | *OC1C(COC(=O)Nc2ccccc2)OC(*)C(OC(=O)Nc2ccccc2)C1OC(=O)Nc1ccccc1 (repeat unit) |
| 157.00 °C | *=Nc1ccc(/N=C(/C=C/C(=*)c2ccccc2)c2ccccc2)cc1 (repeat unit) |
| 254.00 ± 15 °C | *c1ccc(Oc2ccc(N3C(=O)c4cccc(Oc5ccc(Oc6cccc7c6C(=O)N(*)C7=O)cc5)c4C3=O)cc2)cc1 (repeat unit) |
| 148.00 °C | *Nc1cc(NC(=O)NC2CCC(CC3CCC(NC(*)=O)CC3)CC2)cc(C(=O)Nc2ccc3c(c2)C(=O)c2ccccc2C3=O)c1 (repeat unit) |
| 49.00 °C | *CCCCCCCCCCOc1c(OC)cc(/C=C2\CCC/C(=C\c3cc(OC)c(O*)c(OC)c3)C2=O)cc1OC (repeat unit) |
| 151.00 °C | *Oc1ccc(C2(c3ccc(OC(=O)CCCCCCCCC(*)=O)cc3)c3ccccc3-c3ccccc32)cc1 (repeat unit) |
| 9.00 °C | *CC(CCCCCCOc1ccc(/N=N/c2ccc(Cl)cc2)cc1)COC(=O)CCCCC(=O)O* (repeat unit) |
| 213.00 °C | *Oc1ccc(C(c2ccc(Oc3ccc(C(=O)c4cccc5cccc(C(=O)c6ccc(*)cc6)c45)cc3)cc2)(C(F)(F)F)C(F)(F)F)cc1 (repeat unit) |
| 267.00 °C | *Oc1ccc(S(=O)(=O)c2ccc(Oc3ccc(S(=O)(=O)c4ccc(-c5ccc(S(=O)(=O)c6ccc(*)cc6)cc5)cc4)cc3)cc2)cc1 (repeat unit) |
| 84.00 °C | *O[Si](C)(C)O[Si](C)(C)O[Si](C)(C)O[Si](C)(C)C#Cc1ccc(C#C[Si](*)(C)C)cc1 (repeat unit) |
| 346.00 °C | *c1ccc2c(c1)C(=O)N(c1cc(C)c(-c3c(C)cc(N4C(=O)c5ccc(C(*)(C(F)(F)F)C(F)(F)F)cc5C4=O)cc3C)c(C)c1)C2=O (repeat unit) |
| 42.00 °C | *CC(*)(C)C(=O)OCCCCCCOc1ccc(/N=N/c2ccncc2)cc1 (repeat unit) |
| 205.00 °C | *c1ccc(Oc2ccc(C(=O)c3cccc(C(=O)c4ccc(Oc5ccc(-c6cc(*)[nH]n6)cc5)cc4)c3)cc2)cc1 (repeat unit) |
| 150.00 °C | *Oc1ccc(C(C)(C)c2ccc(OC(=O)C3CCC(C(*)=O)CC3)cc2)cc1 (repeat unit) |
| 188.00 °C | *Cc1ccccc1CN(CC)c1ccc(/C=C(\C#N)C(=O)Nc2cccc(NC(=O)/C(C#N)=C/c3ccc(N(*)CC)cc3)c2)cc1 (repeat unit) |

| glass transition temperature | SMILES |
| --- | --- |
| 212.00 °C | *c1ccc(Oc2ccc(N3C(=O)c4ccc(Oc5ccc(Sc6ccc(Oc7ccc8c(c7)C(=O)N(*)C8=O)cc6)cc5)cc4C3=O)cc2)cc1 (repeat unit) |
| 113.00 °C | *CCCCOC(=O)Nc1ccc(-c2ccc(NC(=O)OCCCCn3c4ccccc4c4cc(/C=C(\C#N)C(=O)OCCCCCCOC(=O)/C(C#N)=C/c5ccc6c(c5)c5ccccc5n6*)ccc43)c(C)c2)cc1C (repeat unit) |
| 345.00 °C | *c1ccc(-c2cc(-c3ccc(OCCCC#N)cc3)cc(-c3ccc(-n4c(=O)c5cc6c(=O)n(*)c(=O)c6cc5c4=O)cc3)n2)cc1 (repeat unit) |
| 135.00 °C | *CCN(CCOC(=O)Nc1ccc(C)c(NC(=O)O*)c1)c1ccc(/N=N/c2ccc([N+](=O)[O-])cc2C)c(C)c1 (repeat unit) |
| 270.00 °C | *c1ccc(Oc2ccc(C(c3ccc(Oc4ccc(N5C(=O)c6ccc7c8c(ccc(c68)C5=O)C(=O)N(*)C7=O)cc4)c(S(=O)(=O)O)c3)(C(F)(F)F)C(F)(F)F)cc2S(=O)(=O)O)cc1 (repeat unit) |
| 253.00 °C | *c1cccc(N2C(=O)c3ccc(Oc4ccc5c(c4)C4(CC(C)(C)c6ccc(Oc7ccc8c(c7)C(=O)N(*)C8=O)cc64)CC5(C)C)cc3C2=O)c1 (repeat unit) |
| 107.00 °C | *c1ccc(OCCOCCOCCOc2cccc(N3C(=O)c4ccc(Oc5ccc6c(c5)C(=O)N(*)C6=O)cc4C3=O)c2)cc1 (repeat unit) |
| 66.00 °C | *CCCNC(=O)C(NC(=O)C(Cc1ccccc1)NC(=O)CCCCCCCCC(=O)NC(Cc1ccccc1)C(=O)NC(C(=O)NCCCOCCOCCO*)C(C)C)C(C)C (repeat unit) |
| 55.00 °C | *Oc1cc(OC(=O)c2ccc(OCCCC)cc2)c(OC(=O)C(C)CCC(*)=O)cc1OC(=O)c1ccc(OCCCC)cc1 (repeat unit) |
| 252.50 °C | *Oc1ccc2c(c1)C(C)(c1ccc(OC(=O)c3ccc(C(*)=O)cc3)cc1)CC2(C)C (repeat unit) |
| 84.00 °C | *Oc1c(C)cc(C(C)(C)c2cc(C)c(OC(=O)CCCCCC(*)=O)c(C)c2)cc1C (repeat unit) |
| 66.00 °C | *OC1CCC(OC(=O)CCCCCCCCC(*)=O)CC1 (repeat unit) |
| 55.00 °C | *Oc1ccc(CC(NC(=O)CCc2ccc(OC(=O)CCC(C)CC(*)=O)cc2)C(=O)OCc2ccccc2)cc1 (repeat unit) |
| 283.00 °C | *c1ccc2c(c1)C(=O)N(c1cccc(C(=O)Nc3ccc(Oc4ccc(Oc5ccc(NC(=O)c6cccc(N7C(=O)c8ccc(C(*)(C(F)(F)F)C(F)(F)F)cc8C7=O)c6)cc5)cc4)cc3)c1)C2=O (repeat unit) |
| 62.00 °C | *c1nc(-c2ccccc2)nc(N(CCCCCCCCCCN(*)c2ccccc2)c2ccccc2)n1 (repeat unit) |
| 210.00 °C | *Oc1ccc(OC(=O)/C=C/c2ccc(/C=C/C(*)=O)cc2)cc1 (repeat unit) |
| 272.00 °C | *c1ccc([Si](c2ccccc2)(c2ccccc2)c2ccc(-c3nnc(-c4cncc(-c5nnc(*)o5)c4)o3)cc2)cc1 (repeat unit) |
| 298.00 °C | *C(=O)Nc1ccc(C2(c3ccc(NC(=O)c4ccc5c(c4)C(=O)N(c4ccc(Sc6ccc(Oc7ccc(Sc8ccc(N9C(=O)c%10ccc(*)cc%10C9=O)cc8)cc7)cc6)cc4)C5=O)cc3)c3ccccc3-c3ccccc32)cc1 (repeat unit) |
| 252.00 °C | *c1cccc(C(O)c2cccc(N3C(=O)c4ccc(Oc5ccc6c(c5)C(=O)N(*)C6=O)cc4C3=O)c2)c1 (repeat unit) |

| SMILES | glass transition temperature |
| --- | --- |
| *CCCCCOC(=O)c1ccccc1C(=O)[O][Cd][O]C(=O)c1ccccc1C(=O)OCCCCCOC(=O)Nc1ccc(C)c(NC(=O)O*)c1 (repeat unit) | 2.30 °C |
| *CC(*)OCCOc1ccc(C=C(C#N)C#N)cc1 (repeat unit) | 38.00 °C |
| */C=C/C1C/C(=C\C)C(*)C1 (repeat unit) | 121.00 °C |
| *c1ccc(*)s1 (repeat unit) | 152.17 ± 89 °C |
| *CC(C)(C)COC(=O)CCC(=O)O* (repeat unit) | -18.00 °C |
| *CCOc1ccc(S(=O)(=O)c2ccc(OCCOP(=O)(O*)Oc3ccc([N+](=O)[O-])cc3)cc2)cc1 (repeat unit) | 56.00 °C |
| *CC(*)C(=O)[O][Na] (repeat unit) | 114.40 °C |
| *CC(*)CCCC (repeat unit) | -50.00 °C |
| *CC(*)C(=O)Oc1ccc(C(=O)O)cc1 (repeat unit) | 125.00 °C |
| *CC(C)(/C=C(/*)C)C(=O)OC (repeat unit) | 24.00 °C |
| *CC/C=C(/*)CCCCCCCCCC (repeat unit) | -53.00 °C |
| *Nc1ccc(NC(=O)c2ccc(P(=O)(c3ccccc3)c3ccc(C(*)=O)cc3)cc2)cc1 (repeat unit) | 252.00 °C |
